Results on two substances are retold here after US20230227878A1, “PROCESS FOR PREPARING SURFACTANT” (Enza Biotech AB, priority 2020, published 2023).

Data set [1] can be described thus: Foam measurement (Dynamic Foam Analyser, Kruss). In kind it is physicochemical. As to conditions: 50 ml of 1.5 wt % solution, stirred at 3,000 rpm for 2 minutes. The protocol: Foaming was evaluated using a Dynamic Foam Analyser from Kruss. A volume of 50 ml of 1.5 wt % alkyl polyglucoside solution was added to the cylinder. […] PEG-80 sorbitan laurate and cocamidopropyl betaine were used as surfactant controls.

The nature of data set [2]: Essential oils solubility. In kind it is physicochemical. Conditions: 7 wt % solubilizer in water, room temperature, after 5 hours. The protocol:
13 wt % solution of alkyl polyglucoside in distilled water was prepared and separately mixed with lemon oil, lavender oil, tea tree oil and patchouli oil at a ratio of 1:7 (w/w), and then the mixtures were added dropwise under stirring to water to a final concentration of 1 wt % essential oil and 7 wt % alkyl polyglucoside. […] The mixtures were then left at room temperature for 5 hours and observed for phase separation. Lauryl glucoside was used as a surfactant control with both lemon oil and lavender oil.

Substance cocamidopropyl betaine gave a Foam height in data set [1] of 78 mm.
For the substance lauryl glucoside, the “Essential oils solubility: lavender oil mixture appearance / phase separation” value in data set [2] (1 wt % lavender oil) is “white and cloudy, and had phase separated”. Moreover, in data set [2] (1 wt % lemon oil), the “Essential oils solubility: lemon oil mixture appearance / phase separation” value was “white and cloudy, and had phase separated”.
